Tests used:
COL3A1 = test: Collagen III gene expression in HaCaT human immortalized keratinocytes; format: cell-based; details: 24 hrs, dose-dependent
From the text: (§1) Skin fragility is partly attributed to changes in hemidesmosomes and the expression downregulation of various collagen proteins (Collagen I, III, IV, VII) or laminins (such as LN-5) at the dermal-epidermal junction. LN-5 has been proven to be a component of anchoring fibers in the basement membrane of the skin, cornea, conjunctiva, and other tissues. LN-5 participates in cell-cell interactions through the mediation of integrins and proteoglycans, thereby playing a crucial role in cell adhesion, growth, migration, and differentiation. The appearance of wrinkles is closely related to the normal synthesis and expression of collagen and laminins. Therefore, the increase of the above collagen content and LN-5 can achieve a certain role in resisting wrinkles, and plays an important role in the aging process of the skin. Therefore, the anti-wrinkle effect of the compound to be tested was evaluated by detecting the level of Collage I protein of […] by ELISA, and detecting the transcription levels of epidermal cells (keratinocytes) III, IV, VII and LN -5 by Real-Time PCR. The following Test Examples 8-1 and 8-2 evaluated the anti-wrinkle efficacy of compounds using HaCaT human immortalized keratinocytes and HSF human skin fibroblasts. […]

ampk = test: Zebrafish oxidative aging model (menadione), ampk gene expression by RT-qPCR; format: in vivo; details: I-8 at 2.5 µg/mL, 22 hrs, 4 µM menadione; compared to the modeling group, statistical significance
Description: (§2) Experimental animal: Healthy wild-type AB strain zebrafish at 48 hpf (hours post-fertilization)
(§3) Healthy AB strain zebrafish were taken as experimental animal. A zebrafish oxidative aging model was constructed using chemical mutagenesis with 4 µM menadione as the modeling drug. Fucoxanthin was used as a positive control compound. After treating the zebrafish oxidative aging model with different concentrations of I-8 for 22 hrs, changes in the reactive oxygen species (ROS) content, β-galactosidase activity, and the expression of three antioxidant and anti-aging related genes (Cu/Zn-sod, Mn-sod, and ampk) were respectively detected and statistically analyzed.
(§4) During the experiment, the modeling drug, positive compound, and I-8 were dispersed together in the culture water of zebrafish. […] Cell ROX™ Deep Red fluorescent probes and β-galactosidase staining kits were used to specifically label ROS and β-galactosidase in the fish, respectively, and the staining intensity was quantified using Image-Pro Plus software. After extracting RNA from the whole fish, the expression changes of three genes (Cu/Zn-sod, Mn-sod, and ampk) in the fish were detected at the mRNA level using Quantitative Real-time PCR (RT-qPCR). The data were statistically analyzed using GraphPad software.

type I collagen = test: Type I collagen expression in HSF human skin fibroblasts (ELISA); format: cell-based; details: 24 hrs, dose-dependent
From the text: as §1

Cu/Zn-sod = test: Zebrafish oxidative aging model (menadione), Cu/Zn-sod gene expression by RT-qPCR; format: in vivo; details: I-8 at 2.5, 7.5, and 22.2 µg/mL, 22 hrs, 4 µM menadione; compared to the modeling group, statistical significance
Description: as §2, §3, §4

[1] = Kinetic solubility in aqueous buffer; format: physicochemical; details: 2 hrs at 25 °C
Description: Experimental Methods: 30 µL of the 10 mM DMSO stock solution of the compound to be test was placed in a solubility sample plate (duplicate), 970 µL of aqueous buffer solution was added to the plate, and the plate was sealed with a sealing membrane and shaken at 1100 rpm for 2 hrs at 25 °C. The sample in the solubility plate was transferred to a filter plate, and filtered to obtain a filtrate. 10 µL of the filtrate was transferred into 980 µL of methanol along with 10 µL of DMSO, and then the solution was diluted 10-fold with methanol:water (1:1), and the resulting sample was analyzed by LC-MS/MS to obtain Area (filtered). Separately, 10 mM of the DMSO stock solution of the compound to be test was diluted to 300 µM with DMSO. 10 µL of this 300 µM DMSO solution and 10 µL of aqueous buffer solution were added into 980 µL of methanol, and then diluted 10-fold with methanol:water (1:1), and the resulting sample was analyzed by LC-MS/MS to obtain Area (std). The kinetic solubility was calculated according to the following formula: Solubility(μM) = (Areafiltered × DFfiltered)/(Areastd × DFstd) × [std] × DFstd [formula] wherein DF is the dilution factor.

[2] = test system: reactive oxygen species (ROS); test: Zebrafish oxidative aging model (menadione), ROS content; format: in vivo; details: I-8 at 22.2 µg/mL, 22 hrs, 4 µM menadione; compared with the modeling group, statistical significance
Description: as §2, §3, §4

COL7A1 = test: Collagen VII gene expression in HaCaT human immortalized keratinocytes; format: cell-based; details: 24 hrs, dose-dependent
From the text: as §1

O=S1(=O)Oc2cc(O)ccc2-c2ccc(O)cc21 [Compound I-8]
COL341 gene expression (COL3A1): upregulate | expression of the ampk gene (ampk): upregulated | secretion of type I collagen (type I collagen): improving the secretion of type I collagen | expression of Cu/Zn-sod gene (Cu/Zn-sod): upregulated | solubility kinetic at 2 h [1]: > 300 µM | ROS content [2]: downregulated | COL7A1 gene expression (COL7A1): upregulate
